Target: T1, AhR (Homo sapiens, UniProt P35869)
T1 sequence (P35869 11-848): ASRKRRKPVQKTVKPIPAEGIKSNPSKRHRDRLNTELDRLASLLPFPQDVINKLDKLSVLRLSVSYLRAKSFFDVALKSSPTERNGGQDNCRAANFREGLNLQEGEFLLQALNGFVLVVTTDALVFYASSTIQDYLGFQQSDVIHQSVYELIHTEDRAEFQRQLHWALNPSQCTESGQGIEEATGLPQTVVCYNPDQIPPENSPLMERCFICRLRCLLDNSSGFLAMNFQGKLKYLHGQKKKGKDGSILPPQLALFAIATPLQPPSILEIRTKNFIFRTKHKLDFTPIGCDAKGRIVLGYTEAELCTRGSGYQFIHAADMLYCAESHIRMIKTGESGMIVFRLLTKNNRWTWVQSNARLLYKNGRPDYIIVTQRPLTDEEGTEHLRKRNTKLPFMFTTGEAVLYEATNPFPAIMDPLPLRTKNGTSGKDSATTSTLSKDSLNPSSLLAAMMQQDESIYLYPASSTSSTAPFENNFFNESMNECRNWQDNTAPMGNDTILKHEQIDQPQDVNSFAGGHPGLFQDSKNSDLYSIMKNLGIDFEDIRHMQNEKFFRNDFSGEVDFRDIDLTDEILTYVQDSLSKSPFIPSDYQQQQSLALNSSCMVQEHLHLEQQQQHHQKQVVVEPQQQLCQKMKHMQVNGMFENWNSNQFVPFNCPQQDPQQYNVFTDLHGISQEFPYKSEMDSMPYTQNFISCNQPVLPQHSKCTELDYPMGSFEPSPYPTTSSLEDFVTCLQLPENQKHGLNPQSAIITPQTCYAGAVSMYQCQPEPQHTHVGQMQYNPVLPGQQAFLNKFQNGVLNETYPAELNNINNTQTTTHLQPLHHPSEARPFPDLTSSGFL
Experiment: In Vitro Assay 1: XRE-luciferase reporter assay, antagonism in human cell line (HepG2)
Conditions: Assay 1: AhR-Luc Human Antagonism (IC50, nM), values marked *: kynurenine 50 μM, 6 hours

Row | SMILES | IC50
1 | O[C@@H]1CCCC[C@H]1Nc1cc(-c2ccc(Cl)cc2)nc(-c2cccnc2)n1 (relative stereo) [Example 35, trans-2-((6-(4-chlorophenyl)-2-(pyridin-3-yl)pyrimidin-4-yl)amino)cyclohexan-1-ol] | > 1000 nM
2 | O[C@@H]1CCC[C@H]1Nc1cc(-c2ccc(Cl)cc2)nc(-c2cccnc2)n1 (relative stereo) [Example 68, trans-2-((6-(4-chlorophenyl)-2-(pyridin-3-yl)pyrimidin-4-yl)amino)cyclopentan-1-ol] | 10 to 100 nM
3 | C[C@@H]1CN(c2cc(-c3ccc(Cl)cc3)nc(-c3cccnc3)n2)[C@@H](C)CN1 (relative stereo) [Example 103, Trans-4-(4-chlorophenyl)-6-(2,5-dimethylpiperazin-1-yl)-2-(pyridin-3-yl)pyrimidine] | > 1000 nM
4 | Clc1ccc(-c2cc(N[C@@H]3COC[C@H]3N3CCCC3)nc(-c3cccnc3)n2)cc1 (relative stereo) [Example 201, Trans-6-(4-chlorophenyl)-2-(pyridin-3-yl)-N-(4-(pyrrolidin-1-yl)tetrahydrofuran-3-yl)pyrimidin-4-amine] | > 1000 nM
5 | CC(C)N1C[C@@H](O)[C@H](Nc2cc(-c3ccc(Cl)cc3)nc(-c3cccnc3)n2)C1 (relative stereo) [Example 209, Trans-4-((6-(4-chlorophenyl)-2-(pyridin-3-yl)pyrimidin-4-yl)amino)-1-isopropylpyrrolidin-3-ol] | > 1000 nM
6 | C[C@@H](CO)Nc1cc(-c2ccc(Cl)cc2)nc(-c2cccnc2)n1 [Example 2, (S)-2-((6-(4-chlorophenyl)-2-(pyridin-3-yl)pyrimidin-4-yl)amino)propan-1-ol] | 100 to 1000 nM
7 | C[C@@H](CO)Nc1nc(-c2ccc(Cl)cc2)cc(-c2cccnc2)n1 [Example 3, (S)-2-((4-(4-chlorophenyl)-6-(pyridin-3-yl)pyrimidin-2-yl)amino)propan-1-ol] | 100 to 1000 nM
8 | CC(C)(CO)Nc1cc(-c2ccc(Cl)cc2)nc(-c2cccnc2)n1 [Example 4, 2-((6-(4-chlorophenyl)-2-(pyridin-3-yl)pyrimidin-4-yl)amino)-2-methylpropan-1-ol] | 100 to 1000 nM
9 | CC(C)(CO)Nc1nc(-c2ccc(Cl)cc2)cc(-c2cccnc2)n1 [Example 5, 2-((4-(4-chlorophenyl)-6-(pyridin-3-yl)pyrimidin-2-yl)amino)-2-methylpropan-1-ol] | > 1000 nM
10 | OCCNc1cc(-c2ccc(Cl)cc2)nc(-c2cccnc2)n1 [Example 6, 2-((6-(4-chlorophenyl)-2-(pyridin-3-yl)pyrimidin-4-yl)amino)ethan-1-ol] | 100 to 1000 nM
11 | OCCCNc1cc(-c2ccc(Cl)cc2)nc(-c2cccnc2)n1 [Example 7, 3-((6-(4-chlorophenyl)-2-(pyridin-3-yl)pyrimidin-4-yl)amino)propan-1-ol] | > 1000 nM
12 | C[C@H](O)CNc1cc(-c2ccc(Cl)cc2)nc(-c2cccnc2)n1 [Example 8, (S)-1-((6-(4-chlorophenyl)-2-(pyridin-3-yl)pyrimidin-4-yl)amino)propan-2-ol] | 100 to 1000 nM
13 | C[C@@H](O)CNc1cc(-c2ccc(Cl)cc2)nc(-c2cccnc2)n1 [Example 9, (R)-1-((6-(4-chlorophenyl)-2-(pyridin-3-yl)pyrimidin-4-yl)amino)propan-2-ol] | 100 to 1000 nM
14 | OCC(O)CNc1cc(-c2ccc(Cl)cc2)nc(-c2cccnc2)n1 (stereo not shown) [Example 10, 3-((6-(4-chlorophenyl)-2-(pyridin-3-yl)pyrimidin-4-yl)amino)propane-1,2-diol] | 100 to 1000 nM
15 | C[C@H](CO)Nc1cc(-c2ccc(Cl)cc2)nc(-c2cccnc2)n1 [Example 11, (R)-2-((6-(4-chlorophenyl)-2-(pyridin-3-yl)pyrimidin-4-yl)amino)propan-1-ol] | 10 to 100 nM
16 | CC(C)C(CO)Nc1cc(-c2ccc(Cl)cc2)nc(-c2cccnc2)n1 (stereo not shown) [Example 12, 2-((6-(4-chlorophenyl)-2-(pyridin-3-yl)pyrimidin-4-yl)amino)-3-methylbutan-1-ol] | 100 to 1000 nM
17 | CC(C)[C@@H](CO)Nc1cc(-c2ccc(Cl)cc2)nc(-c2cccnc2)n1 [Example 13, (S)-2-((6-(4-chlorophenyl)-2-(pyridin-3-yl)pyrimidin-4-yl)amino)-3-methylbutan-1-ol] | > 1000 nM
18 | CC(C)[C@H](CO)Nc1cc(-c2ccc(Cl)cc2)nc(-c2cccnc2)n1 [Example 14, (R)-2-((6-(4-chlorophenyl)-2-(pyridin-3-yl)pyrimidin-4-yl)amino)-3-methylbutan-1-ol] | > 1000 nM
19 | CCC(CO)Nc1cc(-c2ccc(Cl)cc2)nc(-c2cccnc2)n1 (stereo not shown) [Example 15, 2-((6-(4-chlorophenyl)-2-(pyridin-3-yl)pyrimidin-4-yl)amino)butan-1-ol] | > 1000 nM

Row | SMILES | IC50
20 | OCC(CO)Nc1cc(-c2ccc(Cl)cc2)nc(-c2cccnc2)n1 [Example 16, 2-((6-(4-chlorophenyl)-2-(pyridin-3-yl)pyrimidin-4-yl)amino)propane-1,3-diol] | > 1000 nM
21 | O[C@@H](CNc1cc(-c2ccc(Cl)cc2)nc(-c2cccnc2)n1)c1ccccc1 [Example 17, (R)-2-((6-(4-chlorophenyl)-2-(pyridin-3-yl)pyrimidin-4-yl)amino)-1-phenylethan-1-ol] | > 1000 nM
22 | O[C@H](CNc1cc(-c2ccc(Cl)cc2)nc(-c2cccnc2)n1)c1ccccc1 [Example 18, (S)-2-((6-(4-chlorophenyl)-2-(pyridin-3-yl)pyrimidin-4-yl)amino)-1-phenylethan-1-ol] | > 1000 nM
23 | Clc1ccc(-c2cc(NCC3CCOCC3)nc(-c3cccnc3)n2)cc1 [Example 19, 6-(4-chlorophenyl)-2-(pyridin-3-yl)-N-((tetrahydro-2H-pyran-4-yl)methyl)pyrimidin-4-amine] | 100 to 1000 nM
24 | CN(C)CCCNc1cc(-c2ccc(Cl)cc2)nc(-c2cccnc2)n1 [Example 20, N^1-(6-(4-chlorophenyl)-2-(pyridin-3-yl)pyrimidin-4-yl)-N^3,N^3-dimethylpropane-1,3-diamine] | > 1000 nM
25 | CCNc1cc(-c2ccc(Cl)cc2)nc(-c2cccnc2)n1 [Example 21, 6-(4-chlorophenyl)-N-ethyl-2-(pyridin-3-yl)pyrimidin-4-amine] | 100 to 1000 nM
26 | CCCNc1cc(-c2ccc(Cl)cc2)nc(-c2cccnc2)n1 [Example 22, 6-(4-chlorophenyl)-N-propyl-2-(pyridin-3-yl)pyrimidin-4-amine] | 100 to 1000 nM
27 | CCCCNc1cc(-c2ccc(Cl)cc2)nc(-c2cccnc2)n1 [Example 23, N-butyl-6-(4-chlorophenyl)-2-(pyridin-3-yl)pyrimidin-4-amine] | > 1000 nM
28 | CCC(O)CNc1cc(-c2ccc(Cl)cc2)nc(-c2cccnc2)n1 (stereo not shown) [Example 24, 1-((6-(4-chlorophenyl)-2-(pyridin-3-yl)pyrimidin-4-yl)amino)butan-2-ol] | 100 to 1000 nM
29 | Clc1ccc(-c2cc(NCC3CC3)nc(-c3cccnc3)n2)cc1 [Example 25, 6-(4-chlorophenyl)-N-(cyclopropylmethyl)-2-(pyridin-3-yl)pyrimidin-4-amine] | > 1000 nM
30 | Clc1ccc(-c2cc(NC3CCCC3)nc(-c3cccnc3)n2)cc1 [Example 26, 6-(4-chlorophenyl)-N-cyclopentyl-2-(pyridin-3-yl)pyrimidin-4-amine] | > 1000 nM
31 | CC(C)(C)Nc1cc(-c2ccc(Cl)cc2)nc(-c2cccnc2)n1 [Example 28, N-(tert-butyl)-6-(4-chlorophenyl)-2-(pyridin-3-yl)pyrimidin-4-amine] | > 1000 nM
32 | O[C@@H]1CCC[C@H]1Nc1cc(-c2ccc(Cl)cc2)nc(-c2cccnc2)n1 [Example 29, (1R,2R)-2-((6-(4-chlorophenyl)-2-(pyridin-3-yl)pyrimidin-4-yl)amino)cyclopentan-1-ol] | 10 to 100 nM
33 | O[C@H]1CCC[C@H]1Nc1cc(-c2ccc(Cl)cc2)nc(-c2cccnc2)n1 [Example 30, (1S,2R)-2-((6-(4-chlorophenyl)-2-(pyridin-3-yl)pyrimidin-4-yl)amino)cyclopentan-1-ol] | 10 to 100 nM
34 | Clc1ccc(-c2cc(NCc3ccccn3)nc(-c3cccnc3)n2)cc1 [Example 31, 6-(4-chlorophenyl)-N-(pyridin-2-ylmethyl)-2-(pyridin-3-yl)pyrimidin-4-amine] | 100 to 1000 nM
35 | Clc1ccc(-c2cc(NCc3cccnc3)nc(-c3cccnc3)n2)cc1 [Example 32, 6-(4-chlorophenyl)-2-(pyridin-3-yl)-N-(pyridin-3-ylmethyl)pyrimidin-4-amine] | 100 to 1000 nM
36 | Clc1ccc(-c2cc(NCc3ccncc3)nc(-c3cccnc3)n2)cc1 [Example 33, 6-(4-chlorophenyl)-2-(pyridin-3-yl)-N-(pyridin-4-ylmethyl)pyrimidin-4-amine] | 100 to 1000 nM
37 | O[C@H]1CC[C@H](Nc2cc(-c3ccc(Cl)cc3)nc(-c3cccnc3)n2)CC1 [Example 34, trans-4-((6-(4-chlorophenyl)-2-(pyridin-3-yl)pyrimidin-4-yl)amino)cyclohexan-1-ol] | 10 to 100 nM

From patent US20230150970A1, “AMINOPYRIMIDINE DERIVATIVES AND THEIR USE AS ARYL HYDROCARBON RECEPTOR MODULATORS” (DONG-A ST CO., LTD., priority 2020, published 2023)
